Measured values reported in patent US20250049840A1, “COMPOSITIONS COMPRISING A CHEMOKINE RECEPTOR PATHWAY INHIBITOR” (DIMERIX BIOSCIENCE PTY LTD, priority 2022, published 2025).
Entries after “also recorded” stand apart in the source; their conditions may differ.

Key:
[1] = target: MCP-1 (Homo sapiens, UniProt P13500); details: Yokochi (2001); Yamada (2004); cited from earlier work
[2] = tested on: monocytes; details: Yokochi (2001); Yamada (2004); cited from earlier work
[3] = In Use stability study: repagermanium IR capsules reconstituted in water in a medical pot, with or without nasogastric tube (assay, appearance, pH); type: physicochemical; details: reconstituted in 15 ml water in a medical pot, up to 3 h (180 minutes)
Protocol: An In Use stability study was performed to determine the reconstitution and dosage information for administration of repagermanium IR capsules via nasogastric feeding tube. The objective of the study was to: • 1. measure the stability of the repagermanium drug product composition once reconstituted in water for administration via a gastric tube, • 2. determine if there is any residual repagermanium remaining in the medicine pot after the first 15 mL solution has been removed, and • 3. identify if additional flushing of the nasogastric tube will be required to deliver the correct dose of repagermanium. There were 6 experiments in total. Each experiment was performed in duplicate (except for micro tests). [table]

Sequence of MCP-1 (P13500 24-99, species assumed): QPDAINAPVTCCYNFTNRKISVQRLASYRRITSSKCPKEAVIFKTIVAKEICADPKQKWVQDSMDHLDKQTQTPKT

SMILES	inhibition of MCP-1 binding [1]	inhibition of in vitro chemotactic migration of monocytes by MCP-1 [2]	chemical and microbiological stability after reconstitution [3]
O=C(O)C[CH2][Ge](=[O])[O][Ge](=[O])[CH2]CC(=O)O [Propagermanium, 3-[(2-carboxyethyl-oxogermyl)oxy-oxogermyl] propanoic acid]	does not inhibit MCP-1 binding	specifically inhibit in vitro chemotactic migration of monocytes by MCP-1; also recorded: inhibits in-vitro chemotactic migration of monocytes by MCP-1	–
O=C(O)C[CH2][Ge](=[O])[O][Ge](=[O])[CH2]CC(=O)O [repagermanium, 3-[(2-carboxyethyl-oxogermyl)oxy-oxogermyl] propanoic acid]	–	–	chemically and microbiologically stable
